Where two headings read alike, the source gives them in different places. Marks after values point to notes of the source that are not given here.

The text below walks through data of patent publication EP2140864A2 (H. Lundbeck A/S, priority 2001, dated 2002).

Test [1] concerns the target T1, human GAL2 receptor (Homo sapiens, UniProt O43603).
T1 construct: expressed in transfected cells
T1 sequence (O43603 1-387): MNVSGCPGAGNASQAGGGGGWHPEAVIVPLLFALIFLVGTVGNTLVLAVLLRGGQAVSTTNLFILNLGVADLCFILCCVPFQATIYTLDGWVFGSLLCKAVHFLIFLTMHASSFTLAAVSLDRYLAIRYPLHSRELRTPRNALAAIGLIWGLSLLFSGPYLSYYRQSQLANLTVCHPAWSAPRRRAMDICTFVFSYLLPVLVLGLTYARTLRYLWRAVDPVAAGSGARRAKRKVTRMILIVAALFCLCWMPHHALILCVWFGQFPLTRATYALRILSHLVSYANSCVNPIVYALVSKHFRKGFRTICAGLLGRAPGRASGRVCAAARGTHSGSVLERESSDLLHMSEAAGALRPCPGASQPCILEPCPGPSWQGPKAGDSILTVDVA
The test can be described thus: Radioligand binding at cloned human GAL2 receptor. The conditions noted are these: pyrimidines, read-out: Ki GalR2. As to the method:
The binding properties of the pyrimidines of the present invention were evaluated at the cloned human galanin receptors, GAL1, GAL2, and GAL3, using protocols described herein.
The binding properties of the indolones of the present invention were evaluated at the cloned human galanin receptors, GAL1, GAL2, and GAL3, using protocols described herein.
LM(tk-) cells were stably transfected with the human GAL1 or GAL3 receptor. CHO cells were stably transfected with the human GAL2 receptor.
cDNAs for the human and rat GAL1, and human and rat GAL3 receptors were transfected with a G-418 resistant gene into the mouse fibroblast LM(tk-) cell line by a calcium phosphate transfection method (Cullen, 1987). Stably transfected cells were selected with G-418. Human and rat GAL2 receptors were similarly transfected into CHO cells.
Membranes were harvested from stably transfected LM(tk-) cells. Adherent cells were washed twice in ice-cold phosphate buffered saline (138 mM NaCl, 8.1 mM Na2HPO4, 2.5 mM KCl, 1.2 mM KH2PO4, 0.9 mM CaCl2, 0.5 mM MgCl2, pH 7.4) and lysed by sonication in ice-cold sonication buffer (20 mM Tris-HCl, 5 mM EDTA, pH 7.7). Large particles and debris were cleared by low speed centrifugation (200 x g, 5 min, 4°C). Membranes were collected from the supernatant fraction by centrifugation (32,000 x g, 18 min, 4°C), washed with ice-cold hypotonic buffer, and collected again by centrifugation (32,000 x g, 18 min, 4°C). The final membrane pellet was resuspended by sonication into a small volume of ice-cold binding buffer (-1 ml for every 5 plates: 10 mM NaCl, 20 mM HEPES, 0.22 mM KH2PO4, 1.26 mM CaCl2, 0.81 mM MgSO4, pH 7.4). Protein concentration was measured by the Bradford method (Bradford, 1976) using Bio-Rad Reagent, with bovine serum albumin as a standard. Membranes were held on ice for up to one hour and used fresh, or flash frozen and stored in liquid nitrogen. Membranes were prepared similarly from CHO cells.
Galanin Recentors: Binding assays were performed according to the following published methods: human GAL3 (PCT International Publication No. WO 98/15570), human GAL1 (PCT International Publication No. WO 95/2260), human GAL2 (PCT International Publication No. WO 97/26853).
Binding data were analyzed using nonlinear regression and statistical techniques available in the GraphPAD Prism package (San Diego, CA). Enzymatic assay data were derived from a standard curve of reference compound data.

Test [2] has as its target T2, human GAL3 receptor (Homo sapiens, UniProt O60755).
T2 construct: expressed in transfected cells
T2 sequence (O60755 1-368): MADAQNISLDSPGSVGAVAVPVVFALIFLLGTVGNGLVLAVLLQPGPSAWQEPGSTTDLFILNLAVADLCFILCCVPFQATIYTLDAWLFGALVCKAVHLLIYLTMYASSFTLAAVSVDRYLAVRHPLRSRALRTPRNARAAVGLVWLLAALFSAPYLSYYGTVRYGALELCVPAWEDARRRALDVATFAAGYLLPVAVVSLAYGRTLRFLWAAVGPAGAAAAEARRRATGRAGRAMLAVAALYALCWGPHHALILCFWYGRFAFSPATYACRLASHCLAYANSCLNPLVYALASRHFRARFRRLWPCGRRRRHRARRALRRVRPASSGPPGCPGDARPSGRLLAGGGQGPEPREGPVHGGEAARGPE
The experiment in a line: Radioligand binding at cloned human GAL3 receptor. The conditions noted are these: cloned human receptor, read-out: Ki GalR3. The method in brief: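 Membranes from LM(tk-) cells stably expressing human GAL3, prepared in binding buffer (HEPES-based, pH 7.4), used for radioligand binding. Solvent at final assay concentration: 3% DMSO for indolones, 1% ethanol/0.09% pluronic F-127 for pyrimidines. Binding data analysed by nonlinear regression.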

In test [3] the test system is Male Sprague-Dawley rats. The test can be described thus: Rat Forced Swim Test (FST). Format: in vivo. The conditions noted are these: for antidepressant profile in the FST (conclusion): overall conclusion of the study. The protocol:
The procedure used in this study was similar to that previously described (Porsolt, et al., 1978), except the water depth (30 cm in this procedure). The greater depth in this test prevented the rats from supporting themselves by touching the bottom of the cylinder with their feet. Swim sessions were conducted by placing rats in individual plexiglass cylinders (46 cm tall x 20 cm in diameter) containing 23-25°C water 30 cm deep (Porsolt, et al. used a depth of only 15 cm; also, see Detke, et al., 1995). Two swim tests were conducted always between 1200 and 1800 hours: an initial 15-min pretest followed 24 h later by a 5-minute test. […] All other test sessions were conducted between 1300 to 1700 hours. Following all swim sessions, rats were removed from the cylinders, dried with paper towels and placed in a heated cage for 15 minutes and returned to their home cages. All test sessions were videotaped using a Panasonic color video camera and recorder for scoring later.
Male Sprague-Dawley rats (Taconic Farms, NY) were used in all experiments. Rats were housed in pairs and maintained on a 12:12-h light-dark cycle. Rats were handled for 5 minutes each day for 5 days prior to behavioral testing.
The rat's behavior was rated at 5 second intervals during the 5 minute test as one of the following: • 1. Immobility- rat remained floating in the water without struggling and was only making those movements necessary to keep its head above water; • 2. Climbing - rat was making active movements with its forepaws in and out of the water, usually directed against the walls; • 3. Swimming - rat was making active swimming motions, more than necessary to merely maintain its head above water, e.g. moving around in the cylinder; and • 4. Diving - entire body of the rat was submerged.
All of the behavior scoring was done by a single rater, who was blind to the treatment condition. The rater was also present in the room throughout the entire test period.
All injections were given using 1 cc tuberculin syringe with 26 3/8 gauge needles (Becton-Dickinson, VWR Scientific, Bridgeport, NJ). The volume of injection was 1 ml/kg.
The drugs were dissolved in 100% N,N-dimethylacetamide. All administrations were given using 1 cc tuberculin syringes, to which a 3 inch, curved, stainless steel gavage needle was attached. The volume of administration was 1 ml/kg.
The compounds were dissolved in 100% N,N-dimethylacetamide. All administrations were given using 1 cc tuberculin syringes, to which a 3 inch, curved, stainless steel gavage needle was attached. The volume of administration was 1 ml/kg.
The forced swim test data (immobility, swimming, climbing, diving) were subjected to a randomized, one-way ANOVA and post hoc tests conducted using the Student-Newman-heuls test. The data were analyzed using the GBSTAT program, version 6.5 (Dynamics Microsystems, Inc., Silver Spring, MD, 1997). All data are presented as means ± S.E.M.

Setting [4] is: 1 mg/kg p.o., single administration, 1 hr. before test.
Where [5] appears, read: 3 mg/kg p.o., single administration, 1 hr. before test.
Setting [6] is: 10 mg/kg p.o., single administration, 1 hr. before test.
Setting [7] is: 3 mg/kg p.o., single administration 24 hours before the test day.
The mark [8] stands for this setting: 5 mg/kg p.o., single administration, 1 hr. before test.
Setting [9] is: 10 mg/kg i.p., single injection, 5 minute test.
Setting [10] is: 10 mg/kg p.o., single administration 24 hours before the test day.

For orientation: Ki means the equilibrium dissociation constant of an inhibitor or competing ligand from its target. In the case of `Cc1ccc(Nc2cc(N3CCCCC3)nc(N(C)c3ccccc3)n2)cc1` [Example 6], the Ki in test [1] was 2160 nM; in test [2] (pyrimidines) it was 248 nM.
The like results for `Cc1ccc(Nc2cc(N3CCCCC3)nc(NCCc3c[nH]c4ccc(C)cc34)n2)cc1` [Example 8] were, in that order, 795 nM and 264 nM.
The like results for `COc1ccc2[nH]cc(CCNc3nc(Nc4ccc(C)cc4)cc(N4CCCCC4)n3)c2c1` [Example 9] were, in that order, 2110 nM and 568 nM.
The like results for `Cc1ccc(Nc2cc(N3CCCCC3)nc(NCCc3c[nH]c4ccccc34)n2)cc1` [Example 10] were, in that order, 865 nM and 100 nM.
`CN(CCc1c[nH]c2ccccc12)c1nc(Nc2cccc(F)c2)cc(N2CCCCC2)n1` [Example 14]: the inhibition constant (Ki) is 1340 nM in test [1] and 54 nM in test [2] (pyrimidines).
The matching figures for `COCCN(CCc1c[nH]c2ccccc12)c1nc(Nc2ccc(C)cc2)cc(N2CCCCC2)n1` [Example 19]: 1770 nM and 79 nM.
The matching figures for `Cc1ccc(Nc2cc(N3CCCCC3)nc(N3CCC(c4ccccc4)CC3)n2)cc1` [Example 24]: 3960 nM and 210 nM.
The like results for `CCc1ccccc1N1CCN(c2nc(Nc3ccc(C)cc3)cc(N3CCCCC3)n2)CC1` [Example 26] were, in that order, 4050 nM and 85 nM.
On to `Cc1ccc(Nc2cc(N3CCCCC3)nc(N3CCN(c4ccccn4)CC3)n2)cc1` [Example 30], for which the inhibition constant (Ki) in test [1] was 2610 nM; in test [2] (pyrimidines), 197 nM.
The like results for `Cc1ccc(Nc2cc(N3CCCCC3)nc(N3CCN(c4ncccc4C)CC3)n2)cc1` [Example 31] were, in that order, 3400 nM and 174 nM.
The like results for `Cc1ccc(Nc2cc(N3CCCCC3)nc(N3CCN(c4cc(C(F)(F)F)ccn4)CC3)n2)cc1` [Example 32] were, in that order, 1860 nM and 145 nM.
`Cc1ccc(Nc2cc(N3CCCCC3)nc(N3CCN(c4ncccn4)CC3)n2)cc1` [Example 37]: the results for the Ki in test [1] and in test [2] (pyrimidines) were 903 nM and 343 nM, respectively.
The like results for `Cc1ccc(Nc2cc(N3CCCCC3)nc(N3CCCc4ccccc43)n2)cc1` [Example 40] were, in that order, 2620 nM and 164 nM.
Take `COc1cc2c(cc1OC)CN(c1nc(Nc3ccc(C)cc3)cc(N3CCCCC3)n1)CC2` [Example 42]: the Ki was 1140 nM in test [1] and 275 nM in test [2] (pyrimidines).
For `Cc1ccc(Nc2cc(N3CCCCC3)nc(N3CCC(O)(c4ccccc4)CC3)n2)cc1` [Example 44], the Ki was found to be 1020 nM in test [1] and 133 nM in test [2] (pyrimidines).
For `Cc1ccc(Nc2cc(N(C)C)nc(N(C)c3ccc(C)cc3)n2)cc1` [Example 72], the Ki in test [1] was 2080 nM; in test [2] (pyrimidines), 132 nM.
The matching figures for `Cc1ccc(Nc2cc(N(C)C)nc(N(C)C3CCCCC3)n2)cc1` [Example 73]: 1550 nM and 124 nM.
`CN(C)c1cc(Nc2ccc(Cl)c(Cl)c2)nc(N2CCN(Cc3ccccc3)CC2)n1` [Example 151]: the inhibition constant Ki in test [2] (pyrimidines) is 11 nM. In test [3] (setting [4]), the Climbing is on record as 2.3 ± 0.6, the Diving came to 0.2 ± 0.2, the Immobility is 41 ± 2.0 and the Swimming is reported as 16.8 ± 1.4^d. For the same compound, in test [3] (setting [5]), the Climbing is on record as 2.4 ± 0.5, the Diving is listed as 0.3 ± 0.2, the Immobility was 38 ± 2.0^a and the Swimming was 19.5 ± 1.5^e. Besides, in test [3] (setting [6]), the Climbing was 2.2 ± 0.5, the Diving worked out at 0.3 ± 0.2, the Immobility is recorded as 39 ± 1.8^b and the Swimming is 18.9 ± 1.5^e. The “antidepressant profile in the FST (conclusion)” value in test [3] is reported as “resemble those of antidepressants”.
Consider `O=C1/C(=N\c2ccc(Cl)c(Cl)c2)c2ccccc2N1c1ccsc1` [Example 272, (3Z)-3-[(3,4-DICHLOROPHENYL)IMINO]-1-(3-THIENYL)-1,3-DIHYDRO-2H-INDOL-2-ONE], for which the Ki in test [2] (indolones) was determined as 26 nM. In test [3] (setting [7]), the Climbing was determined as 3.9 ± 0.6, the Diving amounted to 0.6 ± 0.4, the Immobility was 33 ± 1.8^a and the Swimming is 22.9 ± 1.3^b. For the same compound, the “antidepressant profile in the FST (conclusion)” value in test [3] was “has the profile of an antidepressant”.
For `CNCCC(Oc1ccc(C(F)(F)F)cc1)c1ccccc1` (stereo not drawn) [Fluoxetine, fluoxetine, reference compound], in test [3] (setting [8]), the Climbing stood at 1.2 ± 0.4, the Diving turned out to be 0.0 ± 0.0, the Immobility is given as 45 ± 1.3^c and the Swimming came to 13.9 ± 1.0. In addition, in test [3] (setting [9]), the Climbing came to 14.3 ± 0.9 counts, the Diving was determined as 0.1 ± 0.1, the Immobility is 21 ± 0.9^a counts and the Swimming is on record as 25 ± 1.2^b counts. Further, in test [3] (setting [10]), the Climbing amounted to 3.3 ± 0.6, the Diving is listed as 0.2 ± 0.1, the Immobility was 35 ± 1.7^a and the Swimming is on record as 21.4 ± 1.0^b.
